Reference: EPA's ToxRefDB 2

Columns and labels:
[1] = tested on: rat; conditions: Fertility (Segment I), sprague dawley, Oral, Gavage/Intubation, dose end: 1 generation
[2] = tested on: rat; conditions: Sub-acute repeat dose toxicity, sprague dawley, Oral, Gavage/Intubation, dose end: 21 day, group: systemic
[3] = tested on: rat; conditions: Subchronic oral toxicity in rodents, sprague dawley, Gavage/Intubation, dose end: 90 day, group: systemic
[4] = tested on: dog; conditions: Sub-acute repeat dose toxicity, beagle, Oral, Gavage/Intubation, dose end: 5 day, group: systemic
[5] = tested on: rabbit; conditions: Prenatal developmental toxicity study, new zealand white, Oral, Gavage/Intubation, dose end: 19 GD, group: maternal
[6] = tested on: dog; conditions: Subchronic oral toxicity in nonrodent, beagle, Gavage/Intubation, dose end: 90 day, group: systemic, systemic / in life observation / clinical signs / emesis + systemic / in life observation / clinical signs / erythema + systemic / in life …
[7] = tested on: dog; conditions: Sub-acute repeat dose toxicity, beagle, Oral, Gavage/Intubation, dose end: 15 day, group: systemic
[8] = tested on: rabbit; conditions: Sub-acute repeat dose toxicity, new zealand white, Oral, Gavage/Intubation, dose end: 5 day, group: systemic
[9] = tested on: rat; conditions: Fertility (Segment I), sprague dawley, Oral, Gavage/Intubation, dose end: 1 generation, group: parental
[10] = tested on: rat; conditions: Prenatal developmental toxicity study; sprague dawley; Oral; Gavage/Intubation; dose end: 18 GD; group: maternal; systemic / in life observation / body weight / body weight + systemic / in life observation / body weight / body weight gain + systemic / in…
[11] = tested on: rat; conditions: Subchronic oral toxicity in rodents, fischer, Feed, dose end: 13 week, group: systemic
[12] = tested on: rat; conditions: Prenatal developmental toxicity study, fischer, Oral, Gavage/Intubation, dose end: 15 GD
[13] = tested on: rat; conditions: Prenatal developmental toxicity study, wistar, Oral, Water, dose end: 19 GD
[14] = tested on: mouse; conditions: Subchronic oral toxicity in rodents, b6c3f1, Feed, dose end: 13 week, group: systemic, systemic / organ weight / liver / absolute + systemic / organ weight / liver / relative to body weight + systemic / pathology microscopic / …
[15] = tested on: rabbit; conditions: Prenatal developmental toxicity study, new zealand white, Oral, Gavage/Intubation, dose end: 18 GD, group: maternal
[16] = tested on: rat; conditions: Multigenerational reproductive toxicity study, wistar, Oral, Water, dose end: 1 generation
[17] = tested on: rat; conditions: Sub-acute repeat dose toxicity, sprague dawley, Oral, Gavage/Intubation, dose end: 36 day, group: systemic
[18] = tested on: rabbit; conditions: Prenatal developmental toxicity study, Oral, Gavage/Intubation, dose end: 19 GD
[19] = group: maternal, reproductive / reproductive performance / estrous cycle / length
[20] = group: parental, systemic / in life observation / body weight / body weight + systemic / in life observation / clinical signs / [other] + systemic / in life …
[21] = group: parental, systemic / in life observation / clinical signs / altered breathing rate + systemic / in life observation / clinical signs / compulsive …
[22] = systemic / clinical chemistry / alanine aminotransferase (alt/sgpt) / alanine aminotransferase (alt/sgpt) + systemic / clinical chemistry / …
[23] = systemic / organ weight / liver / relative to body weight
[24] = systemic / clinical chemistry / [other] / [other] + systemic / clinical chemistry / aspartate aminotransferase (ast/sgot) / aspartate …
[25] = systemic / organ weight / liver / absolute + systemic / in life observation / clinical signs / salivation
[26] = systemic / in life observation / body weight / body weight + systemic / in life observation / clinical signs / emesis + systemic / in life …
[27] = systemic / in life observation / clinical signs / salivation + systemic / in life observation / clinical signs / emesis
[28] = systemic / in life observation / clinical signs / dialated pupils + systemic / in life observation / food consumption / food consumption
[29] = systemic / clinical chemistry / alanine aminotransferase (alt/sgpt) / alanine aminotransferase (alt/sgpt) + systemic / hematology / platelet…
[30] = systemic / in life observation / body weight / body weight + systemic / clinical chemistry / alanine aminotransferase (alt/sgpt) / alanine …
[31] = systemic / in life observation / body weight / body weight gain + systemic / in life observation / clinical signs / [other] + systemic / in …
[32] = systemic / in life observation / clinical signs / abnormal feces + systemic / in life observation / clinical signs / altered breathing rate
[33] = systemic / in life observation / body weight / body weight + systemic / in life observation / clinical signs / altered breathing rate + …
[34] = systemic / clinical chemistry / cholesterol / cholesterol
[35] = group: developmental, developmental / developmental malformation / bone / delayed ossification
[36] = group: developmental, developmental / developmental malformation / bone / delayed ossification + developmental / developmental malformation / bone / supernumerary…
[37] = group: maternal, systemic / in life observation / clinical signs / ocular discharge + systemic / in life observation / clinical signs / red or crusty …
[38] = group: developmental, developmental / developmental malformation / bone / incomplete ossification + developmental / developmental malformation / bone / wavy
[39] = group: maternal, reproductive / reproductive performance / pregnancy / pregnancy + systemic / in life observation / body weight / body weight + systemic / in…
[40] = reproductive / reproductive performance / aborted / aborted + systemic / in life observation / mortality / mortality
[41] = group: offspring, developmental / developmental landmark / eye opening / eye opening + developmental / developmental landmark / incisor eruption / incisor …
[42] = group: offspring, developmental / developmental malformation / bone / kinked
[43] = group: parental, systemic / in life observation / body weight / body weight + systemic / in life observation / body weight / body weight gain + systemic / in…
[44] = group: reproductive, reproductive / reproductive performance / implantations / implantations + reproductive / reproductive performance / resorptions / …
[45] = systemic / in life observation / body weight / body weight gain + systemic / in life observation / body weight / offspring (pup) weight + …
[46] = group: developmental, systemic / in life observation / body weight / fetal weight
[47] = group: maternal, systemic / in life observation / body weight / body weight + systemic / in life observation / food consumption / food consumption + systemic…

Compound: CNCc1cc(F)ccc1Oc1ccc(Cl)c(Cl)c1
- LEL [1, 19]: 30 mg/kg/day
- LOAEL [1, 19]: > 60 mg/kg/day
- NEL [1, 19]: 10 mg/kg/day
- NOAEL [1, 19]: ≥ 60 mg/kg/day
- LOAEL [1, 20]: > 60 mg/kg/day
- NOAEL [1, 20]: ≥ 60 mg/kg/day
- LEL [1, 21]: 10 mg/kg/day
- NEL [1, 21]: < 10 mg/kg/day
- LOAEL [2, 22]: > 300 mg/kg/day
- NOAEL [2, 22]: ≥ 300 mg/kg/day
- LEL [2, 23]: 10 mg/kg/day
- NEL [2, 23]: < 10 mg/kg/day
- LOAEL [3, 24]: > 150 mg/kg/day
- NOAEL [3, 24]: ≥ 150 mg/kg/day
- LEL [3, 25]: 10 mg/kg/day
- NEL [3, 25]: < 10 mg/kg/day
- LOAEL [4, 26]: > 10 mg/kg/day
- NOAEL [4, 26]: ≥ 10 mg/kg/day
- LEL [4, 27]: 3 mg/kg/day
- NEL [4, 27]: < 3 mg/kg/day
- LEL ([5]; systemic / in life observation / clinical signs / dialated pupils): 10 mg/kg/day
- LOAEL [5, 28]: > 30 mg/kg/day
- NOAEL [5, 28]: ≥ 30 mg/kg/day
- LEL [6]: 2 mg/kg/day
- LOAEL [6]: > 30 mg/kg/day
- NEL [6]: < 2 mg/kg/day
- NOAEL [6]: ≥ 30 mg/kg/day
- LOAEL [7, 29]: > 60 mg/kg/day
- NOAEL [7, 29]: ≥ 60 mg/kg/day
- LEL [7, 30]: 3 mg/kg/day
- NEL [7, 30]: < 3 mg/kg/day
- LOAEL [8, 31]: > 100 mg/kg/day
- NOAEL [8, 31]: ≥ 100 mg/kg/day
- LEL [8, 32]: 10 mg/kg/day
- NEL [8, 32]: < 10 mg/kg/day
- LOAEL [9, 33]: > 100 mg/kg/day
- NEL [9, 33]: 10 mg/kg/day
- NOAEL [9, 33]: ≥ 100 mg/kg/day
- LEL ([9]; systemic / in life observation / clinical signs / salivation + systemic / in life observation / food consumption / food consumption): 30 mg/kg/day
- LEL [10]: 25 mg/kg/day
- LOAEL [10]: > 50 mg/kg/day
- NOAEL [10]: ≥ 50 mg/kg/day

Compound: CCCCC(CC)C(=O)O (stereo not given) [2-Ethylhexanoic acid]
- LEL [11, 34]: 61 mg/kg/day
- NEL [11, 34]: < 61 mg/kg/day
- LOAEL ([11]; systemic / organ weight / liver / relative to body weight + systemic / pathology microscopic / liver / hypertrophy): 303 mg/kg/day
- NOAEL ([11]; systemic / organ weight / liver / relative to body weight + systemic / pathology microscopic / liver / hypertrophy + systemic / clinical …): 61 mg/kg/day
- LEL [12, 35]: 250 mg/kg/day
- LOAEL [12, 35]: 250 mg/kg/day
- NEL [12, 36]: 100 mg/kg/day
- NOAEL [12, 36]: 100 mg/kg/day
- NEL ([12]; group: maternal, reproductive / reproductive performance / postimplantation loss / postimplantation loss + reproductive / reproductive performance / …): 250 mg/kg/day
- LEL [12, 37]: 500 mg/kg/day
- LOAEL [12, 37]: 500 mg/kg/day
- NOAEL [12, 37]: 250 mg/kg/day
- LEL [13, 38]: 100 mg/kg/day
- LOAEL [13, 38]: 100 mg/kg/day
- NEL [13, 38]: < 100 mg/kg/day
- NOAEL [13, 38]: < 100 mg/kg/day
- LEL ([13]; group: maternal, reproductive / reproductive performance / pregnancy / pregnancy): 300 mg/kg/day
- LOAEL [13, 39]: > 600 mg/kg/day
- NEL [13, 39]: 100 mg/kg/day
- NOAEL [13, 39]: ≥ 600 mg/kg/day
- LEL [14]: 885 mg/kg/day
- LOAEL [14]: 885 mg/kg/day
- NEL [14]: 180 mg/kg/day
- NOAEL [14]: 180 mg/kg/day
- LEL [15, 40]: 125 mg/kg/day
- LOAEL [15, 40]: 125 mg/kg/day
- NOAEL ([15]; reproductive / reproductive performance / aborted / aborted + systemic / in life observation / mortality / mortality + systemic / in life …): 25 mg/kg/day
- LOAEL [16, 41]: > 600 mg/kg/day
- NOAEL [16, 41]: ≥ 600 mg/kg/day
- LEL [16, 42]: 100 mg/kg/day
- NEL [16, 42]: < 100 mg/kg/day
- LOAEL [16, 43]: > 600 mg/kg/day
- NEL [16, 43]: 100 mg/kg/day
- NOAEL [16, 43]: ≥ 600 mg/kg/day
- LEL ([16]; group: parental, systemic / pathology microscopic / uterus / dilatation + systemic / pathology microscopic / vagina / hyperplasia + systemic / pathology …): 300 mg/kg/day
- LEL [16, 44]: 600 mg/kg/day
- LOAEL [16, 44]: > 600 mg/kg/day
- NOAEL [16, 44]: ≥ 600 mg/kg/day

Compound: COCCOC[C@H](CC1(C(=O)NC2CCC(C(=O)O)CC2)CCCC1)C(=O)Oc1ccc2c(c1)CCC2 (stereo not given in full) [Candoxatril]
- LOAEL [17, 45]: > 1200 mg/kg/day
- NOAEL [17, 45]: ≥ 1200 mg/kg/day
- NEL ([17]; systemic / in life observation / clinical signs / hyperactivity): < 120 mg/kg/day
- LEL [18, 46]: 1000 mg/kg/day
- LOAEL [18, 46]: > 1000 mg/kg/day
- NOAEL [18, 46]: ≥ 1000 mg/kg/day
- LEL [18, 47]: 1000 mg/kg/day
- LOAEL [18, 47]: > 1000 mg/kg/day
- NEL [18, 47]: 250 mg/kg/day
- NOAEL [18, 47]: ≥ 1000 mg/kg/day
